Assays:
Assay type in all cases: physicochemical
[1] = Solubility measurements by light transparency (Crystalline PV instrument) on heating to 60° C. and cooling
Method: (§1) Solid 2-(dodecylsulfonyl)octan-4-one was mixed with different solvents and transferred to a 8 mL vial equipped with an overhead stirrer. The sample was placed in a Crystalline PV instrument (Technobis, The Netherlands). Heating and cooling steps were applied under mechanical stirring, and the samples were monitored by following transparency via a LED light beam that passes through the vial. Full (100%) transparency is attained when 2-(dodecylsulfonyl)octan-4-one is completely dissolved in the solvent. On the other hand, when the measured values of transparency are below 100% the dissolution process is still incomplete.
(§2) A first heating step was carried out by quickly (+5° C./min) heating the sample above its solubility temperature to 60° C. After complete dissolution, a cooling ramp to 1° C. was applied (−2° C./min), i.e. below the solubility temperature of the sample, where the sample was kept stirring until 2-(dodecylsulfonyl)octan-4-one has crystallized. Subsequently a second heating step was carried out by applying a shallow heating ramp (+0.1° C./min) in order to dissolve the material under quasi-isothermal conditions. The transparency of the sample was monitored as a function of time during the heating ramp. Once the signal has attained 100% transparency, the dissolution process was complete and the respective temperature was taken as the solubilization temperature (T_sol).
(§3) Following the methodology described above, 2-(dodecylsulfonyl)octan-4-one was mixed with various solvents/liquid carriers that are suitable for perfumery compositions or with perfumery raw materials at a concentration of 5 wt. % and the solubilization temperature has been determined. The solvents and perfumery raw materials used and the respective solubilization temperatures are depicted in Tables 1-3 below.

[2] = Solubility at 25° C. from exponential fit of temperature-solubility curves; conditions: from extrapolation of temperature-solubility curves
Method: The solubility of 2-(dodecylsulfonyl)octan-4-one at 25° C. in various solvents or perfumery raw materials has been determined based on the data presented in Table 9. For each solvent or perfumery raw material, the measured solubility as a function of temperature has been fitted to an exponential function. The solubility at 25° C. has been obtained by extrapolation or interpolation of this exponential function. The results/exponential curves are shown in the Figure (black triangle: DIPG, grey squares: IPM, open diamonds: Hedione®, black circles: gamma-nonalactone and Cetiol® Ultimate (80/20); the continuous lines represent exponential functions fit to the experimental data).

[3] = Determination of the solubilization temperature (T_sol), shallow heating ramp to 100% transparency
Method: as §1, §2
as §3, with “below. […]” for “below.”

[4] = 5 wt. % in Dimethylglutarate (DBE-5)
[5] = 5 wt. % in Dipropylene glycol (DIPG)
[6] = 5 wt. % in Fragrance composition F1
[7] = 5 wt. % in Fragrance composition F2
[8] = 5 wt. % in Fragrance composition F3
[9] = 5 wt. % in Fragrance composition F4
[10] = 5 wt. % in Fragrance composition F5
[11] = 5 wt. % in Isopropyl myristate (IPM)
[12] = 5 wt. % in gamma-Nonalactone/Cetiol ® Ultimate (80/20; w/w)
[13] = 5 wt. % in gamma-Valerolactone/Isopropyl Myristate (IPM) (70/30 w/w)

CCCCCCCCCCCCS(=O)(=O)C(C)CC(=O)CCCC (centres unmarked) [2-(dodecylsulfonyl)octan-4-one]
Soluble after cooling to 25° C. ([1]; 5 wt. % in Cetiol ® Ultimate): not capable of fully dissolving and no | Soluble at 60° C. ([1]; 5 wt. % in Cetiol ® Ultimate): yes | Soluble after cooling to 25° C. [1, 4]: not capable of fully dissolving and no | Soluble at 60° C. [1, 4]: yes | Soluble after cooling to 25° C. [1, 5]: not capable of fully dissolving and no | Soluble at 60° C. [1, 5]: yes | Soluble after cooling to 25° C. ([1]; 5 wt. % in Ethyl lactate): not capable of fully dissolving and no | Soluble at 60° C. ([1]; 5 wt. % in Ethyl lactate): yes | Soluble after cooling to 25° C. [1, 6]: yes | Soluble at 60° C. [1, 6]: yes | Soluble after cooling to 25° C. [1, 7]: yes | Soluble at 60° C. [1, 7]: yes | Soluble after cooling to 25° C. [1, 8]: yes | Soluble at 60° C. [1, 8]: yes | Soluble after cooling to 25° C. [1, 9]: yes | Soluble at 60° C. [1, 9]: yes | Soluble after cooling to 25° C. [1, 10]: yes | Soluble at 60° C. [1, 10]: yes | Soluble after cooling to 25° C. ([1]; 5 wt. % in Hedione ®): yes | Soluble at 60° C. ([1]; 5 wt. % in Hedione ®): yes | Soluble after cooling to 25° C. [1, 11]: not capable of fully dissolving and no | Soluble at 60° C. [1, 11]: yes | Soluble after cooling to 25° C. ([1]; 5 wt. % in Triacetine): not capable of fully dissolving and no | Soluble at 60° C. ([1]; 5 wt. % in Triacetine): yes | Soluble after cooling to 25° C. ([1]; 5 wt. % in Triethyl citrate): not capable of fully dissolving and no | Soluble at 60° C. ([1]; 5 wt. % in Triethyl citrate): yes | Soluble after cooling to 25° C. ([1]; 5 wt. % in gamma-Decalactone): yes | Soluble at 60° C. ([1]; 5 wt. % in gamma-Decalactone): yes | Soluble after cooling to 25° C. [1, 12]: yes | Soluble at 60° C. [1, 12]: yes | Soluble after cooling to 25° C. ([1]; 5 wt. % in gamma-Undecalactone): yes | Soluble at 60° C. ([1]; 5 wt. % in gamma-Undecalactone): yes | Soluble after cooling to 25° C. ([1]; 5 wt. % in gamma-Valerolactone): yes | Soluble at 60° C. ([1]; 5 wt. % in gamma-Valerolactone): yes | Soluble after cooling to 25° C. [1, 13]: yes | Soluble at 60° C. [1, 13]: yes | Solubility of 2-(dodecylsulfonyl)octan-4-one at 25° C. ([2]; in gamma-Valerolactone/IPM (70:30 w/w)): 11.3 wt. % | Solubility of 2-(dodecylsulfonyl)octan-4-one at 25° C. ([2]; in gamma-Valerolactone): 5.5 wt. % | T_sol ([3]; 5 wt. % in Cetiol ® Ultimate): 45.4 °C | T_sol [3, 4]: 27.3 °C | T_sol [3, 5]: 44.6 °C | T_sol ([3]; 5 wt. % in Ethyl lactate): 26.5 °C | T_sol [3, 6]: 21.1 °C | T_sol [3, 7]: 19.8 °C | T_sol [3, 8]: 17.8 °C | T_sol [3, 9]: 24.0 °C | T_sol [3, 10]: 16.3 °C | T_sol ([3]; 5 wt. % in Hedione ®): 21.0 °C | T_sol [3, 11]: 33.5 °C | T_sol ([3]; 5 wt. % in Triacetine): 41.1 °C | T_sol ([3]; 5 wt. % in Triethyl citrate): 36.2 °C | T_sol ([3]; 5 wt. % in gamma-Decalactone): 14.6 °C | T_sol [3, 12]: 10.5 °C | T_sol ([3]; 5 wt. % in gamma-Undecalactone): 15.3 °C | T_sol ([3]; 5 wt. % in gamma-Valerolactone): 23.0 °C | T_sol [3, 13]: 15.3 °C

From US20260102324A1, “PERFUMING COMPOSITIONS COMPRISING A 2-(ALKYLSULFONYL)OCTAN-4-ONE” (FIRMENICH SA, priority 2022, published 2026)
